In PubChem BioAssay AID1745844 (Carcinogenic Potency Database (CPDB), 2022):
The source made the active and inactive calls. No rule for the calls is given here.

Tested on: rodent lifetime carcinogenesis bioassay, tumor incidence TD50
Assay: chronic cancer bioassays in animals – CPDB, compiled studies (AID 1745844)

C=CCNN
TD50 (mouse, strain Swiss albino, females, in drinking water, site: blood vessels, lesion: angioma, dosed 105 weeks, study length 105 weeks): 163 mg/kg/day | TD50 (mouse, strain Swiss albino, females, in drinking water, site: blood vessels, lesion: several types, types named in the paper, dosed 105 weeks, study length 105 weeks): 119 mg/kg/day | TD50 (mouse, strain Swiss albino, females, in drinking water, site: liver, lesion: several types, types named in the paper, dosed 105 weeks, study length 105 weeks): 234 mg/kg/day | TD50 (mouse, strain Swiss albino, females, in drinking water, site: lung, lesion: adenocarcinoma, dosed 105 weeks, study length 105 weeks): 96 mg/kg/day | TD50 (mouse, strain Swiss albino, females, in drinking water, site: lung, lesion: adenoma, dosed 105 weeks, study length 105 weeks): 46.1 mg/kg/day | TD50 (mouse, strain Swiss albino, females, in drinking water, site: lung, lesion: several types, types named in the paper, dosed 105 weeks, study length 105 weeks): 38.4 mg/kg/day | TD50 (mouse, strain Swiss albino, males, in drinking water, site: liver, lesion: hepatoma, dosed 93 weeks, study length 93 weeks): 274 mg/kg/day (inactive) | TD50 (mouse, strain Swiss albino, males, in drinking water, site: lung, lesion: adenoma, dosed 93 weeks, study length 93 weeks): 28.9 mg/kg/day | TD50 (mouse, strain Swiss albino, males, in drinking water, site: lung, lesion: several types, types named in the paper, dosed 93 weeks, study length 93 weeks): 30.9 mg/kg/day

O=C1c2ccccc2-c2ccc3c4c(ccc1c24)-c1ccccc1C3=O
carcinogen call (mouse, strain B6C3F1, females, in feed, site: any site (literature study), lesion: several types, types named in the paper, dosed 106 weeks, study length 106 weeks): negative (inactive) | TD50 (mouse, strain B6C3F1, females, in feed, site: liver, lesion: hepatocellular adenoma + hepatocellular carcinoma + neoplastic nodule, dosed 106 weeks, study length 106 weeks): 23900 mg/kg/day | TD50 (mouse, strain B6C3F1, males, in feed, site: all sites, lesion: lymphoma, dosed 106 weeks, study length 106 weeks): 10900 mg/kg/day | TD50 (mouse, strain B6C3F1, males, in feed, site: any site (literature study), lesion: several types, types named in the paper, dosed 106 weeks, study length 106 weeks): 4410 mg/kg/day | TD50 (mouse, strain B6C3F1, males, in feed, site: liver, lesion: hepatocellular adenoma + hepatocellular carcinoma + neoplastic nodule, dosed 106 weeks, study length 106 weeks): 8610 mg/kg/day | TD50 (mouse, strain B6C3F1, males, in feed, site: lung, lesion: alveolar/bronchiolar adenoma + alveolar/bronchiolar carcinoma, dosed 106 weeks, study length 106 weeks): 19100 mg/kg/day | carcinogen call (rat, strain Fischer 344, females, in feed, site: any site (literature study), lesion: several types, types named in the paper, dosed 104 weeks, study length 104 weeks): negative (inactive) | TD50 (rat, strain Fischer 344, males, in feed, site: any site (literature study), lesion: several types, types named in the paper, dosed 104 weeks, study length 104 weeks): 787 mg/kg/day (inactive) | TD50 (rat, strain Fischer 344, males, in feed, site: liver, lesion: hepatocellular adenoma + hepatocellular carcinoma + neoplastic nodule, dosed 104 weeks, study length 104 weeks): 2790 mg/kg/day

Nc1ncc([N+](=O)[O-])s1
carcinogen call (mouse, strain B6C3F1, females, in feed, site: any site (literature study), lesion: several types, types named in the paper, dosed 104 weeks, study length 104 weeks): negative (inactive) | TD50 (mouse, strain B6C3F1, females, in feed, site: liver, lesion: hepatocellular adenoma + hepatocellular carcinoma + neoplastic nodule, dosed 104 weeks, study length 104 weeks): 109 mg/kg/day | TD50 (mouse, strain B6C3F1, females, in feed, site: lung, lesion: alveolar/bronchiolar adenoma + alveolar/bronchiolar carcinoma, dosed 104 weeks, study length 104 weeks): 63.5 mg/kg/day | carcinogen call (mouse, strain B6C3F1, males, in feed, site: any site (literature study), lesion: several types, types named in the paper, dosed 104 weeks, study length 104 weeks): negative (inactive) | TD50 (rat, strain Fischer 344, females, in feed, site: any site (literature study), lesion: several types, types named in the paper, dosed 110 weeks, study length 111 weeks): 326 mg/kg/day | TD50 (rat, strain Fischer 344, females, in feed, site: uterus, lesion: endometrial stromal polyp, dosed 110 weeks, study length 111 weeks): 57.2 mg/kg/day (inactive) | TD50 (rat, strain Fischer 344, males, in feed, site: all sites + multiple organs, lesion: lymphocytic leukemia + malignant lymphoma + undifferentiated leukemia, dosed 110 weeks, study length 111 weeks): 445 mg/kg/day | TD50 (rat, strain Fischer 344, males, in feed, site: all sites, lesion: leukemia + lymphoma, dosed 110 weeks, study length 111 weeks): 27.6 mg/kg/day | TD50 (rat, strain Fischer 344, males, in feed, site: any site (literature study), lesion: several types, types named in the paper, dosed 110 weeks, study length 111 weeks): 32.3 mg/kg/day | TD50 (rat, strain Fischer 344, males, in feed, site: liver, lesion: hepatocellular adenoma + hepatocellular carcinoma + neoplastic nodule, dosed 110 weeks, study length 111 weeks): 318 mg/kg/day | TD50 (rat, strain Fischer 344, males, in feed, site: multiple organs, lesion: granulocytic leukemia, dosed 110 weeks, study length 111 weeks): 90.2 mg/kg/day | TD50 (rat, strain Sprague-Dawley, females, in feed, site: any site (literature study), lesion: several types, types named in the paper, dosed 46 weeks, study length 66 weeks): 32.5 mg/kg/day | TD50 (rat, strain Sprague-Dawley, females, in feed, site: kidney/pelvis, lesion: transitional-cell carcinoma, dosed 46 weeks, study length 66 weeks): 157 mg/kg/day | TD50 (rat, strain Sprague-Dawley, females, in feed, site: lung, lesion: alveolar-cell carcinoma, dosed 46 weeks, study length 66 weeks): 157 mg/kg/day | TD50 (rat, strain Sprague-Dawley, females, in feed, site: mammary gland, lesion: several types, types named in the paper, dosed 46 weeks, study length 66 weeks): 44.6 mg/kg/day

CC(Oc1c(Cl)cccc1Cl)C1=NCCN1 (stereo not given)
TD50 (rat, strain Long-Evans, females, in feed, site: any site (literature study), lesion: one or several types, types not named, dosed 52 weeks, study length 52 weeks): 2.3 mg/kg/day (inactive) | TD50 (rat, strain Long-Evans, males, in feed, site: any site (literature study), lesion: one or several types, types not named, dosed 52 weeks, study length 52 weeks): 2.3 mg/kg/day (inactive)

O=P(OCC(Br)CBr)(OCC(Br)CBr)OCC(Br)CBr (stereo not given)
TD50 (mouse, strain B6C3F1, females, in feed, site: any site (literature study), lesion: several types, types named in the paper, dosed 103 weeks, study length 104 weeks): 148 mg/kg/day | TD50 (mouse, strain B6C3F1, females, in feed, site: liver + lung + stomach, lesion: hepatocellular adenoma + hepatocellular carcinoma + alveolar/bronchiolar adenoma + alveolar/bronchiolar carcinoma + squamous-cel, dosed 103 weeks, study length 104 weeks): 80.1 mg/kg/day | TD50 (mouse, strain B6C3F1, females, in feed, site: liver, lesion: hepatocellular adenoma + hepatocellular carcinoma + neoplastic nodule, dosed 103 weeks, study length 104 weeks): 95 mg/kg/day | TD50 (mouse, strain B6C3F1, females, in feed, site: liver, lesion: hepatocellular adenoma + hepatocellular carcinoma, dosed 103 weeks, study length 104 weeks): 95 mg/kg/day | TD50 (mouse, strain B6C3F1, females, in feed, site: liver, lesion: hepatocellular carcinoma, dosed 103 weeks, study length 104 weeks): 221 mg/kg/day | TD50 (mouse, strain B6C3F1, females, in feed, site: lung, lesion: alveolar/bronchiolar adenoma + alveolar/bronchiolar carcinoma, dosed 103 weeks, study length 104 weeks): 225 mg/kg/day | TD50 (mouse, strain B6C3F1, females, in feed, site: stomach, lesion: squamous-cell carcinoma + squamous-cell papilloma, dosed 103 weeks, study length 104 weeks): 127 mg/kg/day | TD50 (mouse, strain B6C3F1, females, in feed, site: stomach, lesion: squamous-cell carcinoma, dosed 103 weeks, study length 104 weeks): 611 mg/kg/day | TD50 (mouse, strain B6C3F1, females, in feed, site: uterus, lesion: endometrial stromal polyp, dosed 103 weeks, study length 104 weeks): 264 mg/kg/day | TD50 (mouse, strain B6C3F1, males, in feed, site: any site (literature study), lesion: several types, types named in the paper, dosed 103 weeks, study length 104 weeks): 2220 mg/kg/day | TD50 (mouse, strain B6C3F1, males, in feed, site: kidney + lung + stomach, lesion: tubular-cell adenoma + tubular-cell adenocarcinoma + alveolar/bronchiolar adenoma + alveolar/bronchiolar carcinoma + squamous-ce, dosed 103 weeks, study length 104 weeks): 103 mg/kg/day | TD50 (mouse, strain B6C3F1, males, in feed, site: kidney, lesion: tubular-cell adenocarcinoma, dosed 103 weeks, study length 104 weeks): 822 mg/kg/day | TD50 (mouse, strain B6C3F1, males, in feed, site: kidney, lesion: tubular-cell adenoma + tubular-cell adenocarcinoma, dosed 103 weeks, study length 104 weeks): 256 mg/kg/day | TD50 (mouse, strain B6C3F1, males, in feed, site: liver, lesion: hepatocellular adenoma + hepatocellular carcinoma + neoplastic nodule, dosed 103 weeks, study length 104 weeks): 172 mg/kg/day | TD50 (mouse, strain B6C3F1, males, in feed, site: lung, lesion: alveolar/bronchiolar adenoma + alveolar/bronchiolar carcinoma, dosed 103 weeks, study length 104 weeks): 211 mg/kg/day | TD50 (mouse, strain B6C3F1, males, in feed, site: lung, lesion: alveolar/bronchiolar carcinoma, dosed 103 weeks, study length 104 weeks): 449 mg/kg/day | TD50 (mouse, strain B6C3F1, males, in feed, site: stomach, lesion: squamous-cell carcinoma + squamous-cell papilloma, dosed 103 weeks, study length 104 weeks): 197 mg/kg/day | TD50 (rat, strain Fischer 344, females, in feed, site: any site (literature study), lesion: several types, types named in the paper, dosed 103 weeks, study length 104 weeks): 23 mg/kg/day | TD50 (rat, strain Fischer 344, females, in feed, site: kidney, lesion: tubular-cell adenoma, dosed 103 weeks, study length 104 weeks): 13.8 mg/kg/day | TD50 (rat, strain Fischer 344, females, in feed, site: liver, lesion: hepatocellular adenoma + hepatocellular carcinoma + neoplastic nodule, dosed 103 weeks, study length 104 weeks): 2820 mg/kg/day | TD50 (rat, strain Fischer 344, females, in feed, site: ovary, lesion: Sertoli-cell tumor, dosed 103 weeks, study length 104 weeks): 66.4 mg/kg/day | TD50 (rat, strain Fischer 344, males, by gavage, site: colon, lesion: polypoid adenoma, dosed 52 weeks, study length 52 weeks): 13.4 mg/kg/day | TD50 (rat, strain Fischer 344, males, by gavage, site: kidney, lesion: adenocarcinoma, dosed 52 weeks, study length 52 weeks): 54.8 mg/kg/day | TD50 (rat, strain Fischer 344, males, in feed, site: any site (literature study), lesion: several types, types named in the paper, dosed 103 weeks, study length 104 weeks): 8.31 mg/kg/day | TD50 (rat, strain Fischer 344, males, in feed, site: kidney, lesion: tubular-cell adenocarcinoma, dosed 103 weeks, study length 104 weeks): 63.3 mg/kg/day | TD50 (rat, strain Fischer 344, males, in feed, site: kidney, lesion: tubular-cell adenoma + tubular-cell adenocarcinoma, dosed 103 weeks, study length 104 weeks): 1.57 mg/kg/day | TD50 (rat, strain Fischer 344, males, in feed, site: kidney, lesion: tubular-cell adenoma, dosed 103 weeks, study length 104 weeks): 1.57 mg/kg/day | TD50 (rat, strain Fischer 344, males, in feed, site: liver, lesion: hepatocellular adenoma + hepatocellular carcinoma + neoplastic nodule, dosed 103 weeks, study length 104 weeks): 34.3 mg/kg/day | TD50 (rat, strain Fischer 344, males, in feed, site: liver, lesion: hepatocellular carcinoma + neoplastic nodule, dosed 103 weeks, study length 104 weeks): 34.3 mg/kg/day | TD50 (rat, strain Fischer 344, males, in feed, site: preputial gland, lesion: adenocarcinoma, NOS + adenoma, NOS + carcinoma, NOS, dosed 103 weeks, study length 104 weeks): 20.3 mg/kg/day
